Assay results as given in patent US20120065196A1, “AMIDE COMPOUNDS” (priority 2006, published 2012).

Target: T1, human DGAT1 (Homo sapiens, UniProt O75907)
T1 construct: (N); made in house; host or cells: Sf9 insect cells infected with recombinant baculovirus BAC-DGAT1; microsome fraction
T1 sequence (O75907 1-488): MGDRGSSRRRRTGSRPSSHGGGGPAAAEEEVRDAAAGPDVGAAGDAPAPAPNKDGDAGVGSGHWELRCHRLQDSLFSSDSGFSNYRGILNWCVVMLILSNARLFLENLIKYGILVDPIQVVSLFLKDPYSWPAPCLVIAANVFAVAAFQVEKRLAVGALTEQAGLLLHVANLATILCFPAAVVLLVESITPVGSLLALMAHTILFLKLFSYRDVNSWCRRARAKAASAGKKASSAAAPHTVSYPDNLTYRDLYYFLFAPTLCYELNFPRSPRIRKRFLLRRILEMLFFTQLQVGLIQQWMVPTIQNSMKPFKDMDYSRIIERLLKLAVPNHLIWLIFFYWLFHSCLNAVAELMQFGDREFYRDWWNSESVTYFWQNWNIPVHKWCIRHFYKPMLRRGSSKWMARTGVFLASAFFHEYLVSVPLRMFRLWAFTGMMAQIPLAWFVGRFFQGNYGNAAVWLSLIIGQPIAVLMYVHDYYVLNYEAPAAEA
Assay: Determination of DGAT inhibitory activity (triglyceride synthesis with DGAT1 high expression Sf9 microsome)
Type: biochemical
Settings: 25 μM dioleoylglycerol, 25 μM [14C]-Oleoyl-CoA, 32° C., 20 min, read-out: hDGAT1 IC50
Method: Human DGAT1 gene was cloned by PCR using human adipocyte cDNA (Clontech, QUICK-Clone cDNA, human fat cell, cat #637220) as a template and, based on the DGAT1 gene information reported by Case, S. et al. (Proc. Natl. Acad. Sci. U.S.A. 95 (22), 13018-13023 (1998)), a nucleotide sequence (245-1711 of Genbank Accession No. NM_012079) encoding DGAT1 was amplified with the following PCR primer. The primer nucleotide sequence is shown below.
The PCR reaction was conducted using a KOD-plus kit (TOYOBO). The obtained PCR product was electrophoresed on agarose gel (1%), the DNA fragment amplified by PCR was recovered from the gel, and then digested with restriction enzymes EcoRI and SpeI. The DNA treated with the restriction enzymes was electrophoresed on agarose gel (1%), and the obtained DNA fragment was recovered and ligated with plasmid pFASTBAC1 (Invitrogen) digested with restriction enzymes EcoRI and SpeI to give expression plasmid pFB-DGAT1. The nucleotide sequence of the inserted fragment was confirmed and found to be identical with the nucleotide sequence of DGAT1 (245-1711 of Genbank Accession No. NM_012079). Furthermore, using BAC-TO-BAC Baculovirus Expression System (Invitrogen), recombinant baculovirus BAC-DGAT1 was prepared.
SF9 cells were sown at 1×10^6 cells/ml on Sf-900II SFM medium (1 L, Invitrogen) containing 10% fetal calf serum (Trace), 50 mg/L gentamicin (Invitrogen) and 0.1% Pluronic F-68 (Invitrogen), and shaking culture was performed using a 2 L volume Erlenmeyer flask at 27° C., 100 rpm. After culturing for 24 hrs, recombinant baculovirus BAC-DGAT1 (6.7 mL) was added, and the mixture was further cultured for 3 days. The culture medium was centrifuged at 2,000 rpm for 5 min to give virus-infected cells. The infected cells were washed with a phosphate buffered saline (Invitrogen), centrifuged under the same conditions, and the cells were preserved at −80° C. The cryopreserved cells were thawed in ice, suspended in buffer A (50 mM Tris buffer (30 mL, pH 7.4) containing 20% glycerol, 0.15 M NaCl) supplemented with Complete Protease Inhibitor (Boehringer), and ruptured 3 times with a Polytron homogenizer (Kinematica) at 20,000 rpm for 30 sec. The Sf9 microsome fractions were obtained by a conventional method and cryopreserved at −80° C. as a DGAT1 high expression Sf9 microsome.
As a DGAT1 reaction buffer, a solution having a composition of 100 mM Tris-HCl (pH 7.5), 250 mM sucrose, 150 mM MgCl2, 0.01% bovine serum albumin (BSA) was used. Using this buffer, a given concentration of the test compound and a composition (100 μl) of 25 μM dioleoylglycerol, 25 μM [^14C]-Oleoyl-CoA, 5 μg protein/ml DGAT1 high expression Sf9 microsome, and 1% acetone were subjected to a triglyceride synthesis reaction at 32° C. for 20 min. A mixture of 300 μL of chloroform:methanol (=1:2) was added to the reaction mixture to quench the reaction. The reaction mixture was sufficiently mixed and distilled water (200 μL) was added to partition the mixture between a chloroform layer (lower layer) and an aqueous layer (upper layer). The chloroform layer (50 μL) was spotted on a thin layer chromatography silica gel plate (TLC plate, Merck) and developed with a solvent (n-hexane:diethyl ether:ethyl acetate:acetic acid=255:30:15:0.6). The developed TLC plate was dried, contacted with a BAS imaging plate (manufactured by FUJIFILM) and measured with BAS2500 (manufactured by FUJIFILM) 16 hr later to numerically show the amount of [^14C]-triglyceride (TG amount) produced during the reaction. The inhibitory rate was calculated by the following formula:
Inhibitory rate (%)=(1−(TG amount with addition of test compound−blank TG amount)/(control TG amount−blank TG amount))×100 […]

| SMILES | IC50 [nM] |
| --- | --- |
| O=C(NCCNC(=O)C1CCc2c(cnn2-c2ccccc2)C1)c1cn(-c2ccccc2)nc1C(F)(F)F (stereo not shown) [Example E179, 1-phenyl-N-(2-(1-phenyl-3-(trifluoromethyl)-1H-pyrazole-4-carboxamido)ethyl)-4,5,6,7-tetrahydro-1H-indazole-5-carboxamide] | 10 to 100 |
| O=C(NCCNC(=O)N1CCC(C(=O)c2ccccc2)C1)c1cn(-c2ccccc2)nc1C(F)(F)F (stereo not shown) [Example E189, N-(2-(3-benzoylpyrrolidine-1-carboxamido)ethyl)-1-phenyl-3-(trifluoromethyl)-1H-pyrazole-4-carboxamide] | 10 to 100 |
| CC(C)C1CN(C(=O)NCCNC(=O)c2cn(-c3ccccc3)nc2C(F)(F)F)CC1C(=O)c1ccccc1 (stereo not shown) [Example E193, N-(2-(3-benzoyl-4-isopropylpyrrolidine-1-carboxamido)ethyl)-1-phenyl-3-(trifluouromethyl)-1H-pyrazole-4-carboxamide] | 1000 to 10000 |
| O=C(NCCNC(=O)[C@H]1CC[C@H](c2n[nH]c(=O)o2)CC1)c1cn(-c2ccccc2)nc1C(F)(F)F [Example E197, N-(2-(trans-4-(5-oxo-4,5-dihydro-1,3,4-oxadiazol-2-yl)cyclohexanecarboxamido)ethyl)-1-phenyl-3-(trifluoromethyl)-1H-pyrazole-4-carboxamide] | 10 to 100 |
| Cn1cnc(-c2ccccc2)c1C1CCN(C(=O)NCCNC(=O)c2cn(-c3ccccc3)nc2C(F)(F)F)CC1 [Example E207, 4-(1-methyl-4-phenyl-1H-imidazol-5-yl)-N-(2-(1-phenyl-3-(trifluoromethyl)-1H-pyrazole-4-carboxamido)ethyl)piperidine-1-carboxamide] | 100 to 1000 |
| CC(C)(C)c1cnc([C@H]2CC[C@H](C(=O)NCCNC(=O)c3cn(-c4ccccc4)nc3C(F)(F)F)CC2)o1 [Example E214, N-(2-(trans-4-(5-tert-butyloxazol-2-yl)cyclohexanecarboxamido)ethyl)-1-phenyl-3-(trifluoromethyl)-1H-pyrazole-4-carboxamide] | 10 to 100 |
| O=C(NCCNC(=O)C1CCc2nc(-c3ccccc3O)sc2C1)c1cn(-c2ccccc2)nc1C(F)(F)F (stereo not shown) [Example E221, 2-(2-hydroxyphenyl)-N-(2-(1-phenyl-3-(trifluoromethyl)-1H-pyrazole-4-carboxamido)ethyl)-4,5,6,7-tetrahydrobenzo[d]thiazole-6-carboxamide] | 10 to 100 |
| CC(C)c1nc(C2CCN(C(=O)NCCNC(=O)c3cn(-c4ccccc4)nc3C(F)(F)F)CC2)no1 [Example E225, 4-(5-isopropyl-1,2,4-oxadiazol-3-yl)-N-(2-(1-phenyl-3-(trifluoromethyl)-1H-pyrazole-4-carboxamido)ethyl)piperidine-1-carboxamide] | 100 to 1000 |
| CC(C)c1nc([C@H]2CC[C@H](C(=O)NCCNC(=O)c3cn(-c4ccccc4)nc3C(F)(F)F)CC2)no1 [Example E228, N-(2-(trans-4-(5-isopropyl-1,2,4-oxadiazol-3-yl)cyclohexanecarboxamido)ethyl)-1-phenyl-3-(trifluoromethyl)-1H-pyrazole-4-carboxamide] | 10 to 100 |
| O=C(NCCNC(=O)[C@H]1CC[C@H](c2nnc(-c3ccccc3)[nH]2)CC1)c1cn(-c2ccccc2)nc1C(F)(F)F [Example E229, 1-Phenyl-N-(2-(trans-4-(5-phenyl-4H-1,2,4-triazol-3-yl)cyclohexanecarboxamido)ethyl)-3-(trifluoromethyl)-1H-pyrazole-4-carboxamide] | 100 to 1000 |
| CC(C)c1nnc([C@H]2CC[C@H](C(=O)NCCNC(=O)c3cn(-c4ccccc4Cl)nc3C(F)(F)F)CC2)o1 [Example E234, 1-(2-chlorophenyl)-N-(2-(trans-4-(5-isopropyl-1,3,4-oxadiazol-2-yl)cyclohexanecarboxamido)ethyl)-3-(trifluoromethyl)-1H-pyrazole-4-carboxamide] | 100 to 1000 |
| CC(C)c1nc2c(s1)CC(C(=O)NCCNC(=O)c1cn(-c3ccccc3)nc1C(F)(F)F)CC2 (stereo not shown) [Example E242, 2-isopropyl-N-(2-(1-phenyl-3-(trifluoromethyl)-1H-pyrazole-4-carboxamido)ethyl)-4,5,6,7-tetrahydrobenzo[d]thiazole-6-carboxamide] | 10 to 100 |
| CC(C)c1nc([C@H]2CC[C@H](C(=O)NCCNC(=O)c3cn(-c4ccccc4Cl)nc3C(F)(F)F)CC2)no1 [Example E257, 1-(2-chlorophenyl)-N-(2-(trans-4-(5-isopropyl-1,2,4-oxadiazol-3-yl)cyclohexanecarboxamido)ethyl)-3-(trifluoromethyl)-1H-pyrazole-4-carboxamide] | 10 to 100 |
| CC(C)c1nc([C@H]2CC[C@H](C(=O)NCCNC(=O)c3cn(-c4ccccc4F)nc3C(F)(F)F)CC2)no1 [Example E260, 1-(2-fluorophenyl)-N-(2-(trans-4-(5-isopropyl-1,2,4-oxadiazol-3-yl)cyclohexanecarboxamido)ethyl)-3-(trifluoromethyl)-1H-pyrazole-4-carboxamide] | 10 to 100 |
| CC(C)c1nnc([C@H]2CC[C@H](C(=O)NCCNC(=O)c3cn(-c4ccccc4F)c4ccccc34)CC2)o1 [Example E265, 1-(2-fluorophenyl)-N-(2-(trans-4-(5-isopropyl-1,3,4-oxadiazol-2-yl)cyclohexanecarboxamido)ethyl)-1H-indole-3-carboxamide] | 10 to 100 |
| CN(CCc1ccncc1)C(=O)NCCNC(=O)c1cn(-c2ccccc2)nc1C(F)(F)F [Example F1, N-(2-(3-Methyl-3-(2-(pyridin-4-yl)ethyl)ureido)ethyl)-1-phenyl-3-(trifluoromethyl)-1H-pyrazole-4-carboxamide] | 1000 to 10000 |
